From the NIST ThermoML archive (doi:10.1016/j.tca.2011.01.019)
Values joined by “and” are separate entries in the source; they are usually repeats but may differ in a detail not shown here. Identical values can stand only once.

How the values were obtained:
[1] = 101 kPa, Liquid; for speed of sound: Linear variable-path acoustic interferometer; for mass density: Pycnometric method
[2] = xn = mol fraction of the nth substance listed; settings: 101 kPa, Liquid; for speed of sound: Linear variable-path acoustic interferometer; for mass density: Pycnometric method

Cc1ccccc1N [2-methylaniline]
[1]
Settings	mass density [kg/m3]	speed of sound [m/s]
303.15 K	990.1	1579
313.15 K	981.7	1539
323.15 K	973.3	1501

Cc1ccccc1N [2-methylaniline] + C1CCOC1
[2]
Settings	mass density, 303.15 K [kg/m3]	mass density, 313.15 K [kg/m3]	mass density, 323.15 K [kg/m3]	speed of sound, 303.15 K [m/s]	speed of sound, 313.15 K [m/s]	speed of sound, 323.15 K [m/s]
x2 = 0	990.1	981.7	973.3	1579	1539	1501
x2 = 0.0828	984	975.9	968	1559	1519	1482
x2 = 0.1818	977	969.2	961.5	1534	1493	1458
x2 = 0.2807	969.9	962.2	954.6	1508	1467	1431
x2 = 0.3704	962.6	954.9	947.3	1482	1442	1406
x2 = 0.4652	953.7	945.9	938.2	1455	1414	1377
x2 = 0.5732	941.7	933.8	925.9	1421	1379	1342
x2 = 0.6764	928.4	920.1	911.9	1382	1341	1305
x2 = 0.7791	913.3	904.7	896	1343	1301	1264
x2 = 0.888	895.8	886.4	877	1300	1255	1219

Cc1ccccc1N [2-methylaniline] + CC(C)OC(C)C
[2]
Settings	mass density, 303.15 K [kg/m3]	mass density, 313.15 K [kg/m3]	mass density, 323.15 K [kg/m3]	speed of sound, 303.15 K [m/s]	speed of sound, 313.15 K [m/s]	speed of sound, 323.15 K [m/s]
x2 = 0	990.1	981.7	973.3	1579	1539	1501
x2 = 0.0717	968.9	962.3	955.7	1530	1491	1457
x2 = 0.1513	946.3	940.3	934.4	1475	1437	1404
x2 = 0.2389	922	916.1	910.4	1415	1378	1343
x2 = 0.3255	898.8	892.6	886.4	1359	1320	1284
x2 = 0.4206	873.5	866.9	860.2	1299	1259	1224
x2 = 0.5248	845.6	838.8	831.6	1237	1197	1160
x2 = 0.625	817.9	811	803.6	1180	1139	1103
x2 = 0.7415	784.9	777.6	770	1116	1074	1038
x2 = 0.866	749.3	741	732.8	1049	1007	968

Cc1cccc(N)c1 [3-methylaniline]
[1]
Settings	mass density [kg/m3]	speed of sound [m/s]
303.15 K	980.8	1567
313.15 K	972.7	1533
323.15 K	964.6	1492

Cc1cccc(N)c1 [3-methylaniline] + C1CCOC1
[2]
Settings	mass density, 303.15 K [kg/m3]	mass density, 313.15 K [kg/m3]	mass density, 323.15 K [kg/m3]	speed of sound, 303.15 K [m/s]	speed of sound, 313.15 K [m/s]	speed of sound, 323.15 K [m/s]
x2 = 0	980.8	972.7	964.6	1567	1533	1492
x2 = 0.0864	975.3	968	960.1	1544	1513	1474
x2 = 0.1853	969.2	962.6	955	1522	1488	1451
x2 = 0.2831	963	956.4	948.9	1497	1463	1425
x2 = 0.3776	956.4	949.7	941.9	1472	1436	1398
x2 = 0.4693	949	942	933.9	1447	1409	1372
x2 = 0.5689	939.3	931.9	923.6	1416	1375	1339
x2 = 0.6803	926.2	918.4	909.8	1378	1338	1301
x2 = 0.7808	912.4	904.3	895.3	1341	1300	1261
x2 = 0.8886	895.6	886.8	877.2	1300	1255	1217

Cc1cccc(N)c1 [3-methylaniline] + CC(C)OC(C)C
[2]
Settings	mass density, 303.15 K [kg/m3]	mass density, 313.15 K [kg/m3]	mass density, 323.15 K [kg/m3]	speed of sound, 303.15 K [m/s]	speed of sound, 313.15 K [m/s]	speed of sound, 323.15 K [m/s]
x2 = 0	980.8	972.7	964.6	1567	1533	1492
x2 = 0.0743	961	954.3	946.9	1515	1482	1443
x2 = 0.1546	939.9	934	927	1462	1429	1391
x2 = 0.2421	917.2	911.5	904.6	1404	1371	1334
x2 = 0.3279	894.6	888.9	881.9	1350	1315	1280
x2 = 0.4275	868	862.1	855	1289	1254	1218
x2 = 0.53	840	834	826.9	1230	1193	1158
x2 = 0.6285	812.7	806.4	799.4	1175	1138	1101
x2 = 0.7424	781.2	774.5	767	1113	1075	1036
x2 = 0.8651	747.8	740.1	731.6	1048	1007	966

CC(C)OC(C)C [diisopropyl ether]
[1]
Settings	mass density	speed of sound [m/s]
303.15 K	712.9 kg/m3	976
313.15 K	702.5 kg/m3 and 702.9 kg/m3	932
323.15 K	691.9 kg/m3	889

CC(C)OC(C)C [diisopropyl ether] + Cc1cccc(N)c1
[2], x1 = 1
Settings	mass density [kg/m3]	speed of sound [m/s]
303.15 K	712.9	976
313.15 K	702.9	932
323.15 K	691.9	889

CC(C)OC(C)C [diisopropyl ether] + Cc1ccccc1N
[2], x1 = 1
Settings	mass density [kg/m3]	speed of sound [m/s]
303.15 K	712.9	976
313.15 K	702.5	932
323.15 K	691.9	889

C1CCOC1 [tetrahydrofuran]
[1]
Settings	mass density [kg/m3]	speed of sound [m/s]
303.15 K	876.9	1254
313.15 K	865.7	1207
323.15 K	854.8	1165

C1CCOC1 [tetrahydrofuran] + Cc1cccc(N)c1
[2], x1 = 1
Settings	mass density [kg/m3]	speed of sound [m/s]
303.15 K	876.9	1254
313.15 K	865.7	1207
323.15 K	854.8	1165

C1CCOC1 [tetrahydrofuran] + Cc1ccccc1N
[2], x1 = 1
Settings	mass density [kg/m3]	speed of sound [m/s]
303.15 K	876.9	1254
313.15 K	865.7	1207
323.15 K	854.8	1165
